{"source": "patent US20210269815A1", "about": "“GENETICALLY MODIFIED PLANT AND USES THEREOF” (IST AUSTRIA, priority 2018, published 2021)", "type_in_all_cases": "in vivo, Arabidopsis", "key": {"SYAC1 expression": {"system": "SYAC1 expression", "experiment": "Genome wide transcriptome profiling of roots exposed to auxin, cytokinin and both hormones", "conditions": "3 hours of treatment, 1 μM auxin, 10 μM cytokinin", "procedure": "The syac1-1 (salk_151420C, Col-0, KAN^R) and syac1-2 (salk_151662B, Col-0, KAN^R) T-DNA insertion lines were obtained from the Salk Institute. The syac1-3 (GABI-KAT 760F05, Col-0, SUL^R) and syac1-4 (GABI-KAT 961C03, Col-0, SUL^R) T-DNA insertion lines were obtained from the GABI KAT seed collection. The syac1-5 CRISPR line was prepared in collaboration with the VBCF Protein Technologies Facility (www.vbcf.ac.at) (see below). The genetically modified fluorescent-protein marker lines in Col-0 background have been described elsewhere: mCherry tagged wave line 6, 9, 13, 18, 25, 29, 34, 127, 129, 131, 138 (Geldner et al., 2009, Plant J. 59, 169-178), SYP61:SYP61-CFP (Drakakaki et al., 2012, Cell Res. 22, 413-424). The echidna mutant has been described in (Gendre et al., 2011, PNAS 108, 8048-8053) and yip4a-2 yip4b-1 in (Gendre et al., 2013, The Plant Cell 25, 2633-2646). […]\nTo search for novel molecular components and mechanisms of auxin-cytokinin cross-talk, genome wide transcriptome profiling of roots exposed to auxin, cytokinin and both hormones simultaneously, was performed. […] This SYAC1 expression profile in roots was further validated by quantitative real-time (RT-qPCR) (FIG. 2A). […]"}, "SYAC1 promoter": {"system": "SYAC1 promoter", "experiment": "pSYAC1:GUS / pSYAC1:nlsGFP reporter expression in roots", "procedure": "The syac1-1 (salk_151420C, Col-0, KAN^R) and syac1-2 (salk_151662B, Col-0, KAN^R) T-DNA insertion lines were obtained from the Salk Institute. The syac1-3 (GABI-KAT 760F05, Col-0, SUL^R) and syac1-4 (GABI-KAT 961C03, Col-0, SUL^R) T-DNA insertion lines were obtained from the GABI KAT seed collection. The syac1-5 CRISPR line was prepared in collaboration with the VBCF Protein Technologies Facility (www.vbcf.ac.at) (see below). The genetically modified fluorescent-protein marker lines in Col-0 background have been described elsewhere: mCherry tagged wave line 6, 9, 13, 18, 25, 29, 34, 127, 129, 131, 138 (Geldner et al., 2009, Plant J. 59, 169-178), SYP61:SYP61-CFP (Drakakaki et al., 2012, Cell Res. 22, 413-424). The echidna mutant has been described in (Gendre et al., 2011, PNAS 108, 8048-8053) and yip4a-2 yip4b-1 in (Gendre et al., 2013, The Plant Cell 25, 2633-2646). Seeds of Arabidopsis were plated and grown on square plates with solid half strength Murashige and Skoog (MS) medium (Duchefa) supplemented with 0.5 g L^−1 MES, 10 g L^−1 Sucrose, 1% agar and pH adjusted to 5.9. The plates were incubated at 4° C. for 48 h to synchronize seed germination and then vertically grown under a 16:8 h day/night cycle photoperiod at 21° C. Cytokinin and auxin treatments were performed with the N6-benzyladenine cytokinin derivative (Sigma) and Naphthaleneacetic acid (Sigma), respectively. Short treatments (6 hours) for GUS/GFP expression were performed with 10 μM cytokinin and 1 μM auxin (unless indicated differently). For root growth transient assay 0.1 μM cytokinin and 0.05 μM auxin was used. Estradiol treatment was performed with β-Estradiol (Sigma).\nFor promoter analysis of SYAC1, an upstream sequence of 2522 bp was amplified by PCR and introduced into the pDONRP4-P1R entry vector. Then transcriptional lines (pSYAC1:GUS, pSYAC1:nlsGFP) were created: for pSYAC1:GUS, an LR reaction with SYAC1 promoter in pDONORP4-P1R, pEN-L1-S-L2,0 and pK7m24GW,0 vectors was performed. For pSYAC1:nlsGFP line, an LR reaction with SYAC1 promoter in pDONORP4-P1R, pEN-L1-NF-L2,0 and pB7m24GW,0 was performed. […]"}, "[1]": {"system": "root tip of wild type control plants", "experiment": "Effect of excess copper on the primary root of seedlings grown on agar", "conditions": "5 days on normal media, then transferred to media containing 50 μM CuSO4", "procedure": "Plants were grown for 5 days on normal AM+ media and then transferred to media containing 50 μM CuSO4."}}}
{"molecule": "c1ccc(CNc2ncnc3nc[nH]c23)cc1", "note": "[cytokinin, N6-benzyladenine]", "values": [{"measurement": "SYAC1 expression compared to an untreated control", "setting": "SYAC1 expression", "value": "1.53±0.19"}, {"measurement": "pSYAC1 reporter signal (pSYAC1:GUS, pSYAC1:nlsGFP)", "setting": "SYAC1 promoter; roots, 6 hours exposure", "value": "enhanced reporter signal in the quiescent center (QC) and columella initials (CI)"}]}
{"molecule": "NC1(C(=O)O)CC1", "note": "[ACC, 1-aminocyclopropane-1-carboxylic acid]", "values": [{"measurement": "enhancement of pSYAC1:GUS expression", "setting": "SYAC1 promoter; roots treated with ACC only or in combination with cytokinin, auxin or both", "value": "No enhancement"}]}
{"molecule": "O=C(O)Cc1cccc2ccccc12", "note": "[auxin, Naphthaleneacetic acid]", "values": [{"measurement": "SYAC1 expression compared to an untreated control", "setting": "SYAC1 expression", "value": "2.47±0.20"}]}
{"molecule": "O=S(=O)([O-])[O-].[Cu+2]", "note": "[CuSO4]", "values": [{"measurement": "SYAC1 promoter-driven GUS expression in reporter lines", "setting": "SYAC1 promoter; 50 μM CuSO4 in ½MS plus Agar substrate", "value": "able to trigger"}, {"measurement": "swelling of cells at the root tip", "setting": "[1]", "value": "trigger swelling of cells at the root tip"}]}
